Assay results from patent US20240299359A1, “PHARMACEUTICAL COMPOSITION FOR ANIMALS CONTAINING 5-HYDROXY-METHYLIMIDAZOLIDINE-2,4-DIONE COMPOUND AS ACTIVE INGREDIENT” (KYONGBO PHARM. CO., LTD., priority 2021, published 2024).
Like-named read-outs stand apart in the source and are kept apart here.

Columns and labels:
[1] = Pharmacokinetic analysis in beagles after oral administration; type: in vivo, beagle; conditions: for Cmax / AUC(0-inf) / AUC(0-t) / half-life / Tmax: beagle, dog, plasma, mean; for Cmax: po, read-out: Cmax (average highest plasma concentration); for Tmax: read-out: tmax (time of highest plasma concentration)
Experimental: For this purpose, 5-hydroxy-1-methylimidazolidine-2,4-dione was weighed, based on the fasting weight measured on the day of administration, using an electronic scale in accordance with the oral doses of 10, 50, 100, and 200 mg/kg for each experimental group, and was added to a 500 ml glass container, DW (distilled water) was added as an excipient, and the drug was dissolved therein through vortexing and stirring. Then, the beagles used in the subsequent experiments were acclimatized and environmentally adapted for about a week before the test, and then the compound was orally administered to each beagle at the doses listed in the table below. In addition, the beagles used in this experiment were bred and kept at the Endik Institute.
The compound was administered orally, blood was collected in a volume of 3 ml using a syringe from the jugular vein of the experimental beagle at each time (0 (before administration), 0.25, 0.5, 1, 1.5, 2, 4, 8, 12, and 24 hours), the collected blood was centrifuged at 4,000 rpm/10 minutes at 4° C. and dispensed into 500 μl of a set of two separate 1.5 ml tubes, and the remaining plasma was dispensed into another set and immediately stored in a deep freezer at −70° C. until analysis. The concentration of 5-hydroxy-1-methylimidazolidine-2,4-dione in the collected plasma was measured using the following method.
First, a standard sample solution for preparing a calibration curve was prepared. 1.2 mg of standard 5-hydroxy-1-methylimidazolidine-2,4-dione was dissolved in 0.12 ml of DMSO to prepare a stock solution having a final concentration of 10 mg/ml. Then, the stock solution was diluted to a final concentration of 500, 1,000, 2,000, 5,000, 10,000, 30,000, 100,000, 300,000, and 1,000,000 ng/ml with 70% acetonitrile as a solvent. Then, for an internal standard sample solution, 5.0 mg of 4-methylumbelliferone was dissolved in acetonitrile to prepare a final stock solution of 5 mg/ml, which was then diluted with acetonitrile to obtain a final concentration of 200 ng/ml.
To prepare a calibration curve using each solution prepared above, standard 5-hydroxy-1-methylimidazolidine-2,4-dione was dissolved in DMSO to prepare a 10 mg/ml standard stock solution and then the standard stock solution was frozen at −20° C., and the prepared standard stock solution was diluted with 70% acetonitrile to prepare a working solution. The working solution was diluted with blank plasma stored frozen below −20° C. (working standard solution 10%, blank plasma 90%) to prepare standard plasma to adjust the concentration of analyte in plasma to […]. 20 μl of each standard plasma was placed in a 1.5 ml micro-tube and then 180 μl of internal standard solution (200 ng/ml in ACN) was added thereto. After vortexing for 5 minutes, centrifugation was performed at 4° C. and 17,600×g for 5 minutes. 150 μl of the supernatant was transferred to a 300 μl screw vial, 5 μl of the supernatant was injected into the HPLCMS/MS system, and a calibration curve was plotted at the ratio of the peak area of the analyte to the obtained peak area of the internal standard.
Then, the plasma sample collected from the beagle was subjected to the following pretreatment for assay. 180 μl of the internal standard solution was added to 20 μl of the plasma sample to induce protein precipitation. Then, the mixed sample was suspended using a vortex mixer for 5 minutes, centrifuged at 17,600×g for 5 minutes, and 150 μl of the supernatant was transferred to an analysis container. Then, 5 μl of the supernatant was injected into a HPLC/MS/MS system and analysis was performed. The instruments used for analysis were an HPLC system (Agilent 1100 Series with on-line degasser, binary pump, thermostatted well-plate autosampler and column compartment) and an MS/MS system (SCIEX 4000 QTRAP System). […]

[2] = 13-week repeated oral toxicity: feed intake; type: in vivo, beagle; conditions: repeated oral once a day for 13 weeks
Experimental: During the 13-week test period starting from the day before administration, feed intake was measured a total of 14 times before administration (pre) and every week on the weight measurement day for 13 weeks after the first administration. Approximately 200 g/day/head of solid feed was injected into a feed container at a predetermined time on the day before the weight measurement day and consumed freely. After 24 hours, the remaining feed was measured the next day.

[3] = oral G3 (100 ng/kg [sic]; text 100 mg/kg)

SMILES: CN1C(=O)NC(=O)C1O (stereo not drawn) [KBP-001, 5-hydroxy-1-methylimidazolidine-2,4-dione]
- Cmax ([1]; 10 mg/kg, oral 10 mg/kg (G1)): 15 µg/mL
- Cmax ([1]; 100 mg/kg, oral G3 (100 ng/kg [sic]; text 100 mg/kg)): 102 µg/mL
- Cmax ([1]; 200 mg/kg, oral 200 mg/kg (G4)): 233 µg/mL
- AUC(0-inf) ([1]; oral 10 mg/kg (G1)): 66.2 µg·h/mL
- AUC(0-t) ([1]; oral 10 mg/kg (G1)): 65.4 µg·h/mL
- half-life ([1]; oral 10 mg/kg (G1)): 2.89 h
- Tmax ([1]; oral 10 mg/kg (G1)): 0.6 h
- AUC(0-inf) ([1]; oral 50 mg/kg (G2)): 289 µg·h/mL
- AUC(0-t) ([1]; oral 50 mg/kg (G2)): 288 µg·h/mL
- half-life ([1]; oral 50 mg/kg (G2)): 2.8 h
- Tmax ([1]; oral 50 mg/kg (G2)): 0.35 h
- AUC(0-inf) ([1]; oral 200 mg/kg (G4)): 1120 µg·h/mL
- AUC(0-t) ([1]; oral 200 mg/kg (G4)): 1110 µg·h/mL
- half-life ([1]; oral 200 mg/kg (G4)): 2.9 h
- Tmax ([1]; oral 200 mg/kg (G4)): 0.45 h
- AUC(0-inf) [1, 3]: 468 µg·h/mL
- AUC(0-t) [1, 3]: 466 µg·h/mL
- half-life [1, 3]: 2.97 h
- Tmax [1, 3]: 0.8 h
- adverse reactions ([1]; single oral 10, 50, 100, 200 mg/kg, until end of PK test): no adverse reactions were observed
- feed intake [2]: no significant difference in feed intake between respective groups
